T1: heat-resistant sarcosine oxidase N from Bacillus sp. NS-129 (present enzyme) (Bacillus sp., UniProt P23342)
T1 construct: the present enzyme is ordinarily present within the cells; made in house; host or cells: Bacillus sp; NS-129 (FERM BP-671), the native producer; purified from the cells
T1 sequence (P23342 1-387): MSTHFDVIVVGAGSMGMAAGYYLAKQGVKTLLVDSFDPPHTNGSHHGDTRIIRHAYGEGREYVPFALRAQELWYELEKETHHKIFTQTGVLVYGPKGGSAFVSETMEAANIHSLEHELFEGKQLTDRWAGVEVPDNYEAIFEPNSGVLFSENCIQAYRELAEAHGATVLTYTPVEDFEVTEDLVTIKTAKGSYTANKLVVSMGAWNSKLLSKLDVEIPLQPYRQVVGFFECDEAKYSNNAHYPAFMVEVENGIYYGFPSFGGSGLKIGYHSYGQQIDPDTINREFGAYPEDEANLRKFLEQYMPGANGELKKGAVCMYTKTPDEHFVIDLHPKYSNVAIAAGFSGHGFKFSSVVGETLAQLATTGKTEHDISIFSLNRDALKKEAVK


Experiments:
[1] = target: Known enzyme*2: the sarcosine oxidase described in J. Biochem. 89, 599 (1981) JAPAN (Corynebacterium sp., UniProt Q50LF2); conditions: read-out: Km value for sarcosine; 37° C., pH 7.7; Table 1, known enzyme*2; cited from earlier work
[2] = target: T1, heat-resistant sarcosine oxidase N from Bacillus sp. NS-129 (present enzyme); assay: Inhibition of heat-resistant sarcosine oxidase N; type: biochemical; conditions: inhibitor at 2 mM
[3] = substrate: CNCC(=O)O; assay: Km determination of heat-resistant sarcosine oxidase N (present enzyme); type: biochemical, Bacillus sp. NS-129; conditions: other: 37° C., pH 7.7 (phosphate buffer solution)
Protocol: First method: Sarcosine is oxidatively decomposed using the present enzyme and the resulting formaldehyde is determined by colorimetry.
To 0.3 ml of a 0.2 M sarcosine solution were added 0.1 ml of a 0.3 M phosphate buffer solution (pH 7.7) and 0.1 ml of a solution containing an appropriate concentration of the present enzyme. They were subjected to reaction at 37° C. for 10 minutes. The reaction was stopped by addition of 0.5 ml of a 1.0 N acetic acid solution. Thereto was added 3 ml of a color reagent (pH 6.5) containing 0.02% (V/V) of acetylacetone and 10% (W/V) of diammonium hydrogen phosphate. The resulting mixture was subjected to color development at 37° C. for 40 minutes. The absorbance of the resulting color at 410 nm was measured using a photoelectric photometer.
Second method: Sarcosine is oxidatively decomposed using the present enzyme and the resulting hydrogen peroxide (H2 O2) is determined by colorimetry.
0.1 ml of a solution containing an appropriate concentration of the present enzyme was added to a mixture of 0.5 ml of a 0.2 M sarcosine solution, 0.1 ml of a 0.3 M phosphate buffer solution (pH 7.7), 0.1 ml of a 0.2% 2,4-dichlorophenol sulfonate solution, 0.1 ml of a 70 mg/100 ml 4-aminoantipyrine solution and 0.1 ml of a 70 units/ml peroxidase solution. […] The absorbance of the resulting color at 510 nm was measured using a photoelectric photometer.

Row | Molecule | Inhibition of the enzyme [2] | also measured
1 | CNCC(=O)O [sarcosine, N-methylglycine] | – | Km [1]: 3.4 mM
2 | CCN1C(=O)C=CC1=O [N-ethylmaleimide] | strongly inhibited | –
3 | O=C(O)CI [monoiodoacetic acid] | strongly inhibited | –
4 | heat-resistant sarcosine oxidase N from Bacillus sp. NS-129 (present enzyme) (Bacillus sp. NS-129) (protein, the present enzyme is ordinarily present within the cells; made in house; host or cells: Bacillus sp; NS-129 (FERM BP-671), the native producer; purified from the cells) MSTHFDVIVVGAGSMGMAAGYYLAKQGVKTLLVDSFDPPHTNGSHHGDTRIIRHAYGEGREYVPFALRAQELWYELEKETHHKIFTQTGVLVYGPKGGSAFVSETMEAANIHSLEHELFEGKQLTDRWAGVEVPDNYEAIFEPNSGVLFSENCIQAYRELAEAHGATVLTYTPVEDFEVTEDLVTIKTAKGSYTANKLVVSMGAWNSKLLSKLDVEIPLQPYRQVVGFFECDEAKYSNNAHYPAFMVEVENGIYYGFPSFGGSGLKIGYHSYGQQIDPDTINREFGAYPEDEANLRKFLEQYMPGANGELKKGAVCMYTKTPDEHFVIDLHPKYSNVAIAAGFSGHGFKFSSVVGETLAQLATTGKTEHDISIFSLNRDALKKEAVK | – | Km [3]: 4.7 mM

— patent US4740465A, “Heat-resistant sarcosine oxidase N and process for producing the same” (Noda Institute for Scientific Research, priority 1985, dated 1988)
